In US20230080054A1 (ILDONG PHARMACEUTICAL CO., LTD., priority 2021, published 2023):

Biological target: T1, human ANO6 (Homo sapiens, UniProt Q4KMQ2)
T1 construct: expressed in transfected cells
T1 sequence (Q4KMQ2 1-931 isoform Q4KMQ2-2): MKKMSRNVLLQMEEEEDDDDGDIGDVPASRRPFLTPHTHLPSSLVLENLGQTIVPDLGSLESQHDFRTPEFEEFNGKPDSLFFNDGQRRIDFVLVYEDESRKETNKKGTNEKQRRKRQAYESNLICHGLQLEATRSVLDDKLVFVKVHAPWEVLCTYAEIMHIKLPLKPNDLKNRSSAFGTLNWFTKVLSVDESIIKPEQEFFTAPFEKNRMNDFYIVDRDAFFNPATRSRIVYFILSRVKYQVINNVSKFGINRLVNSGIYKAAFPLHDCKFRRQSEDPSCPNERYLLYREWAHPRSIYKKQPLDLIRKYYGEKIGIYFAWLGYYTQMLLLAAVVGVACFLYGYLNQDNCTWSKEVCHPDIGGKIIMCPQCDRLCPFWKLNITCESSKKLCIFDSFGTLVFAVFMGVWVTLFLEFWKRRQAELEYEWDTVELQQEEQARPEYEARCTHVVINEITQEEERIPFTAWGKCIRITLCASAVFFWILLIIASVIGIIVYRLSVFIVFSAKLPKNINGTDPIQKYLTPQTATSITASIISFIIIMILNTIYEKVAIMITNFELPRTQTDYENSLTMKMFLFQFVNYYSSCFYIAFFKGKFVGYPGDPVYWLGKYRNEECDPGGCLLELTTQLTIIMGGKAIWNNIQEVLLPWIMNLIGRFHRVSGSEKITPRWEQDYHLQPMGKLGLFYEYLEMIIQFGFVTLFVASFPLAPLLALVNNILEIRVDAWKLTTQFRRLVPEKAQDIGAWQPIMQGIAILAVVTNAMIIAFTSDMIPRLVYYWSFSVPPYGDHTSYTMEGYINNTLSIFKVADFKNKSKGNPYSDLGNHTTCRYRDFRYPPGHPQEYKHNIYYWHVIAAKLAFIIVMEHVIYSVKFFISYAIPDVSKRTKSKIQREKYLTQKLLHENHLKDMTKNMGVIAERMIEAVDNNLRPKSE
Experiment: LACT C2 assay (phosphatidylserine scramblase function assay)
Format: cell-based
Conditions: FRT cells expressing human ANO6, 10 μM ionomycin; for inhibition at 0.1 µM: test compound 100 nM, read-out: Inhibition Level 100 nM; for inhibition at 1 µM: test compound 1 μM, read-out: Inhibition Level 1 μM
Description: Phosphatidylserine Scramblase Function Assay
1. Materials and Instruments
Ionomycin (Alomonelab, cat. #I-700), DAPI (Sigma-Aldrich, cat. #D8417), paraformaldehyde (Biosesang, cat. #P2031), Lionheart FX Automated Microscope (BioTek, Winooski), Python3 (Python Software Foundation), and OpenCV (Open Source Computer Vision Library).
Fisher rat thyroid (FRT) cells stably expressing human ANO6 (GenBank accession no. NP_001191732.1, provided by J. H. Nam, Dongguk University College of Medicine, Korea) were grown in DMEM/Ham's F-12 (1:1) medium with 10% FBS, 2 mM L-549 glutamine, 100 units/mL penicillin, and 100 μg/mL streptomycin at 37° C. and 5% CO2.
FRT cells stably expressing human ANO6 were plated in 96 well black-walled microplates at a density of 2×10^4 cells/well. After 24 hours incubation, cells were treated with the test compound (dissolved in DMSO) were treated to each well to become 1% v/v DMSO for 10 minutes, then 10 μM of ionomycin was applied. Finally each well was washed with 200 μL PBS after 10 minutes. After washout, the phosphatidylserine and nuclei were stained with PBS containing 500 nM Lactadherin-C2 (Lact-C2)-GFP, then cells were washed with 200 μL PBS. Cells were fixed with 4% paraformaldehyde for 5 minutes at room temperature. For morphological analysis, some cells were stained with fluorescently labelled DAPI for 15 minutes at room temperature. Quantitative analysis of the fluorescence intensity of Lact-C2-GFP was performed with Python3 and OpenCV. OpenCV was used to remove background and noise pixels, and the sum of all remaining pixel values was used to evaluate the fluorescence intensity of Lact-C2-GFP.
The inhibitory activity (%) of each of the test compounds was obtained by the following steps. In each row of 96 well plate, the inhibitory activity of each of the test compounds was calculated as percentages. The inhibitory activity of a negative control group to which neither compounds nor ionomycin were treated was set to be 100%, and the inhibitory activity of a positive control group to which ionomycin was treated and compounds were not treated was set to be 0%. The assay was performed in triplicate, and the results were averaged.

Row | Structure (SMILES) | inhibition at 0.1 µM [%] | inhibition at 1 µM [%]
1 | Cc1ccc(CCNC(=O)c2cccc(Nc3ncc(-c4ccccc4)cn3)c2)o1 [Compound 153, N-(2-(5-methylfuran-2-yl)ethyl)-3-((5-phenylpyrimidin-2-yl)amino)benzamide] | < 30 | < 30
2 | O=C(N[C@@H]1C[C@H]1c1ccccc1)c1cncc(Nc2ncc(-c3ccccc3)cn2)c1 [Compound 156, N-((1R,2S)-2-phenylcyclopropyl)-5-((5-phenylpyrimidin-2-yl)amino)nicotinamide] | < 30 | 30 to 60
3 | O=C(N[C@@H]1C[C@H]1c1ccccc1)c1cccc(Nc2ncc(-c3ccoc3)cn2)c1 [Compound 157, 3-((5-(furan-3-yl)pyrimidin-2-yl)amino)-N-((1R,2S)-2-phenylcyclopropyl)benzamide] | 30 to 60 | ≥ 60
4 | O=C(N[C@@H]1C[C@H]1c1ccccc1)c1cccc(Nc2nnc(-c3ccccc3)o2)c1 [Compound 159, 3-((5-phenyl-1,3,4-oxadiazol-2-yl)amino)-N-((1R,2S)-2-phenylcyclopropyl)benzamide] | < 30 | 30 to 60
5 | O=C(Nc1cccc(F)c1)c1cccc(Nc2ccc(-c3ccncc3)cc2)c1 [Compound 162, N-(3-fluorophenyl)-3-((4-(pyridin-4-yl)phenyl)amino)benzamide] | < 30 | ≥ 60
6 | O=C(N[C@@H]1C[C@H]1c1ccccc1)C12CC3CC(CC(Nc4ccc(-c5ccccc5)nn4)(C3)C1)C2 [Compound 166, N-((1R,2S)-2-phenylcyclopropyl)-3-((6-phenylpyridazin-3-yl)amino)adamantane-1-carboxamide] | < 30 | –
7 | O=C(N[C@@H]1C[C@H]1c1ccccc1)c1cc(Nc2ncc(-c3ccccc3)cn2)ccn1 [Compound 167, N-((1R,2S)-2-phenylcyclopropyl)-4-((5-phenylpyrimidin-2-yl)amino)picolinamide] | < 30 | –
8 | O=C(N[C@@H]1C[C@H]1c1ccccc1)C12CCC(Nc3ccc(-c4ccccc4)nn3)(CC1)C2 [Compound 168, (1s,4s)-N-((1R,2S)-2-phenylcyclopropyl)-4-((6-phenylpyridazin-3-yl)amino)bicyclo[2.2.1]heptane-1-carboxamide] | < 30 | –
9 | CNc1cccc(NC(=O)c2cccc(Nc3ncc(-c4cccc(F)c4)cn3)c2)c1 [Compound 177, 3-((5-(3-fluorophenyl)pyrimidin-2-yl)amino)-N-(3-(methylamino)phenyl)benzamide] | < 30 | –
10 | O=C(N[C@@H]1C[C@H]1c1ccccc1)c1ccnc(Nc2ncc(-c3ccccc3)cn2)c1 [Compound 178, N-((1R,2S)-2-phenylcyclopropyl)-2-((5-phenylpyrimidin-2-yl)amino)isonicotinamide] | 30 to 60 | –
11 | Cc1cscc1-c1cnc(Nc2cccc(C(=O)Nc3cccc(F)c3)c2)nc1 [Compound 179, N-(3-fluorophenyl)-3-((5-(4-methylthiophen-3-yl)pyrimidin-2-yl)amino)benzamide] | ≥ 60 | –
12 | CN(c1cccc(C(=O)N[C@@H]2C[C@H]2c2ccccc2)c1)c1ncc(-c2cccc(F)c2)cn1 [Compound 180, 3-((5-(3-fluorophenyl)pyrimidin-2-yl)(methyl)amino)-N-((1R,2S)-2-phenylcyclopropyl)benzamide] | < 30 | –
13 | O=C(Nc1ccc2c(c1)CCN2)c1cccc(Nc2ncc(-c3cccc(F)c3)cn2)c1 [Compound 181, 3-((5-(3-fluorophenyl)pyrimidin-2-yl)amino)-N-(indolin-5-yl)benzamide] | < 30 | –
14 | O=C(Nc1cccc(F)c1)c1cccc(NC2CCC(c3ccccc3)C2)c1 (stereo not drawn) [Compound 187, N-(3-fluorophenyl)-3-((3-phenylcyclopentyl)amino)benzamide] | < 30 | –
15 | O=C(Nc1cccc(F)c1)C1CCCC(Nc2ccc(-c3ccccc3)nn2)C1 (stereo not drawn) [Compound 191, N-(3-fluorophenyl)-3-((6-phenylpyridazin-3-yl)amino)cyclohexane-1-carboxamide] | < 30 | –
16 | O=C(Nc1ccc2c(c1)CNC2)c1cccc(Nc2ncc(-c3cccc(F)c3)cn2)c1 [Compound 192, 3-((5-(3-fluorophenyl)pyrimidin-2-yl)amino)-N-(isoindolin-5-yl)benzamide] | < 30 | –

Next, values leading:

Row | inhibition at 0.1 µM [%] | inhibition at 1 µM [%] | Structure (SMILES)
17 | < 30 | < 30 | O=C(Nc1cccc(F)c1)c1cccc(Nc2nnc(-c3ccccc3)o2)c1 [Compound 158, N-(3-fluorophenyl)-3-((5-phenyl-1,3,4-oxadiazol-2-yl)amino)benzamide]
18 | < 30 | – | O=C(Nc1nnc(-c2ccccc2)[nH]1)c1cccc(Nc2ncc(-c3cccc(F)c3)cn2)c1 [Compound 194, 3-((5-(3-fluorophenyl)pyrimidin-2-yl)amino)-N-(5-phenyl-4H-1,2,4-triazol-3-yl)benzamide]
19 | < 30 | ≥ 60 | O=C(NCc1ccc(F)c(C(F)(F)F)c1)c1cccc(Nc2ccc(-c3ccccc3)nn2)c1 [Compound 195, N-(4-fluoro-3-(trifluoromethyl)benzyl)-3-((6-phenylpyridazin-3-yl)amino)benzamide]
20 | < 30 | 30 to 60 | O=C(NC1(c2ccc(F)cc2)CC1)c1cccc(Nc2ccc(-c3ccccc3)nn2)c1 [Compound 196, N-(1-(4-fluorophenyl)cyclopropyl)-3-((6-phenylpyridazin-3-yl)amino)benzamide]
21 | < 30 | < 30 | CN1CCN(c2ccc(CNC(=O)c3cccc(Nc4ccc(-c5ccccc5)nn4)c3)cc2)CC1 [Compound 197, N-(4-(4-methylpiperazin-1-yl)benzyl)-3-((6-phenylpyridazin-3-yl)amino)benzamide]
22 | < 30 | ≥ 60 | O=C(NCCc1ccc(F)cc1)c1cccc(Nc2ccc(-c3ccccc3)nn2)c1 [Compound 198, N-(4-fluorophenethyl)-3-((6-phenylpyridazin-3-yl)amino)benzamide]
23 | ≥ 60 | ≥ 60 | O=C(N[C@@H]1C[C@H]1c1ccc(F)cc1)c1cccc(Nc2ccc(-c3ccccc3)nn2)c1 [Compound 199]
24 | < 30 | ≥ 60 | O=C(NCc1ccc(F)cc1Br)c1cccc(Nc2ccc(-c3ccccc3)nn2)c1 [Compound 200, N-(2-bromo-4-fluorobenzyl)-3-((6-phenylpyridazin-3-yl)amino)benzamide]
25 | < 30 | 30 to 60 | O=C(NCc1ccc(F)c(Br)c1)c1cccc(Nc2ccc(-c3ccccc3)nn2)c1 [Compound 201, N-(3-bromo-4-fluorobenzyl)-3-((6-phenylpyridazin-3-yl)amino)benzamide]
26 | < 30 | 30 to 60 | O=C(NCc1ccc(C(F)(F)F)cc1)c1cccc(Nc2ncc(-c3cccc(F)c3)cn2)c1 [Compound 202, 3-((5-(3-fluorophenyl)pyrimidin-2-yl)amino)-N-(4-(trifluoromethyl)benzyl)benzamide]
27 | < 30 | < 30 | O=C(NCc1ccccc1F)c1cccc(Nc2ncc(-c3cccc(F)c3)cn2)c1 [Compound 203, N-(2-fluorobenzyl)-3-((5-(3-fluorophenyl)pyrimidin-2-yl)amino)benzamide]
